In patent publication US11214540B2, “Compositions for treating neurodegenerative diseases” (COGNITION THERAPEUTICS, INC., priority 2017, dated 2022):

What was measured:
log P = type: physicochemical
How it was run: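 Ratio of un-ionized compound concentrations between octanol and water, with aqueous pH set so the un-ionized form predominates. Value given as the log of the octanol/water ratio.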

[1] = test system: Abeta oligomer-induced membrane trafficking deficits in primary hippocampal neurons; assay: Membrane Trafficking/Exocytosis (MTT) assay, Abeta oligomer effect on neurons; type: cell-based, rat; settings: membrane trafficking; read-out: EC50 Abeta;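 note: compound potency for inhibiting the Abeta oligomer effect on exocytosis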
Procedure: Compounds according to any embodiment described herein, were tested for their ability to inhibit an amyloid beta effect on the cells. The compounds generally were able to inhibit the amyloid beta effect as measured by a membrane trafficking/exocytosis assay (MTT assay). The rationale for this assay was as follows:
The present exocytosis assay was adapted for use with mature primary neuronal cultures grown for 3 weeks in vitro. See WO 2011/106785, which is incorporated herein by reference in its entirety. Abeta oligomers cause a dose-dependent decrease in the amount of intracellular vesicles (puncta) filled with reduced purple formazan as measured via image processing using a Cellomics VTI automated microscopy system. […] Increasing the amount of Abeta oligomers eventually results in overt toxicity. Thus, the concentration of neuroactive Abeta oligomers used in the assay is much lower than that causing cell death. […] When configured in this manner, the assay is able to detect compounds that inhibit nonlethal effects of Abeta oligomer whether these compounds act via disruption of oligomers, inhibition of oligomer binding to neurons, or counteraction of signal transduction mechanisms of action initiated by oligomer binding.
Primary hippocampal neurons from E18 Sprague-Dawley rat embryos were plated at optimized concentrations in 384 well plates in NB media (Invitrogen). Neurons were maintained in cultures for 3 weeks, with twice weekly feeding of NB media with N2 supplement (Invitrogen).
A test compound was added to cells at concentrations ranging from 100 uM to 0.001 nM followed by addition of vehicle or Abeta oligomer preparations (3 μM total Abeta protein concentration), and incubated for 1 to 24 hr at 37° C. in 5% CO2. MTT reagent (3-(4,5-dimethylthizaol-2yl)-2,5diphenyl tetrazolium bromide) (Roche Molecular Biochemicals) was reconstituted in phosphate buffered saline to 5 mg/mL. 10 μL of MTT labeling reagent is added to each well and incubated at 37° C. for 1 h, then imaged. Exocytosis was assessed by automated microscopy and image processing to quantify the amount of endocytosed and exocytosed formazan.
Each assay plate was formatted so that compounds are tested with and without Abeta oligomer on each plate. This design eliminates toxic or metabolically active compounds early on in the screening cascade (at the level of the primary screen). Reduced formazan was first visible in intracellular vesicles. Eventual formazan exocytosis was accelerated via Abeta oligomers.
Human amyloid peptide 1-42 was obtained from a number of commercial vendors such as California Peptide, with lot-choice contingent upon quality control analysis. Quality controls of oligomer preparations consist of Westerns to determine oligomer size ranges and relative concentrations, and the MTT assay to confirm exocytosis acceleration without toxicity. Toxicity was monitored in each image-based assay via quantification of nuclear morphology visualized with the DNA binding blue dye DAPI (Invitrogen). Nuclei that are fragmented are considered to be in late stage apoptosis (Majno and Joris '95) and the test would be rejected. Peptide lots producing unusual peptide size ranges or significant toxicity at a standard 1.5 μM concentration on neurons would also be rejected.
Data handling and analysis were accomplished by Cellomics VTI image analysis software and STORE automated database software. Because of the low dynamic range and neuronal well-to-well variability after three weeks in culture, statistical comparisons are made via pairwise Tukey-Kramer analysis to determine the significance of the separation between compound+Abeta oligomers from Abeta alone, and between compound alone from vehicle. The ability of mature primary neurons to more closely approximate the electrophysiologically mediated signal transduction network of the adult brain justifies this screening strategy. […]

[2] = biological target: Sigma-2 receptors on membranes from rat cerebral cortex (Rattus norvegicus (Rat), UniProt Q5U3Y7); assay: Competitive Radioligand Binding Assay 1, Sigma-2 binding ([3H]DTG displacement with (+)pentazocine mask); settings: sigma-2 receptor affinity; read-out: S2 Ki
Procedure: Using the same protocol, some compounds for which membrane trafficking data are given in Table 1 were tested for recognition of sigma-2 receptor. Certain compounds preferentially bind to the sigma-2 receptor.
For Sigma-1 binding, various concentrations of test compounds from 100 μM to 1 nM were used to displace 8 nM [3H](+)pentazocine from endogenous receptors on Jurkat cell membranes (Ganapathy M E et al. 1991, J Pharmacol. Exp. Ther. 289:251-260). 10 μM Haloperidol was used to define non-specific binding. […] (Bowen W D, et al. 1993, Mol. Neuropharmcol 3:117-126). 10 μM Haloperidol was used to define non-specific binding. Reactions were terminated by rapid filtration through Whatman GF/C filters using a Brandel 12R cell harvester followed by two washes with ice-cold buffer. Radioactivity on the dried filter discs was measured using a liquid scintillation analyzer (Tri-Carb 2900TR; PerkinElmer Life and Analytical Sciences). The displacement curves were plotted and the Ki values of the test compounds for the receptor subtypes were determined using GraphPad Prism (GraphPad Software Inc., San Diego, Calif.). The percentage specific binding was determined by dividing the difference between total bound (disintegrations per minute) and nonspecific bound (disintegrations per minute) by the total bound (disintegrations per minute).
Affinities for Sigma-1 and Sigma-2 receptors are typically obtained from published studies using cerebral tissue homogenates with [3H](+)pentazocine to measure displacement from Sigma-1 receptors and [3H] 1,3-Di-(2-tolyl)guanidine in the presence of 300 nM (+)pentazocine to measure displacement from Sigma-2 receptors.

potassium channel hERG = potassium channel hERG (Homo sapiens (Human), UniProt Q12809); assay: In vitro testing for hERG inhibition; type: biochemical; settings: in vitro toxicity potassium channel hERG
Procedure: In vitro testing for hERG inhibition was performed in a standard assay (See: Haverkamp W, Breithardt G, Carnm A J, Janse M J, Rosen M R, Antzelevitch C, Escande D, Franz M, Malik M, Moss A and Shah R. (2000) Eur Heat J 21 (15); 1216-31).

Sequence of Sigma-2 receptors on membranes from rat cerebral cortex (Q5U3Y7 whole entry): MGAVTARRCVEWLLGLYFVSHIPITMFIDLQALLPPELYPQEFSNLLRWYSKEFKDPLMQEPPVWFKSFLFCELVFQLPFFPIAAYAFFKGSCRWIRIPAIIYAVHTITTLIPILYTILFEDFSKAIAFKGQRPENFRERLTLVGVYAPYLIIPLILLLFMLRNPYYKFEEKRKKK
Sequence of potassium channel hERG (Q12809 whole entry): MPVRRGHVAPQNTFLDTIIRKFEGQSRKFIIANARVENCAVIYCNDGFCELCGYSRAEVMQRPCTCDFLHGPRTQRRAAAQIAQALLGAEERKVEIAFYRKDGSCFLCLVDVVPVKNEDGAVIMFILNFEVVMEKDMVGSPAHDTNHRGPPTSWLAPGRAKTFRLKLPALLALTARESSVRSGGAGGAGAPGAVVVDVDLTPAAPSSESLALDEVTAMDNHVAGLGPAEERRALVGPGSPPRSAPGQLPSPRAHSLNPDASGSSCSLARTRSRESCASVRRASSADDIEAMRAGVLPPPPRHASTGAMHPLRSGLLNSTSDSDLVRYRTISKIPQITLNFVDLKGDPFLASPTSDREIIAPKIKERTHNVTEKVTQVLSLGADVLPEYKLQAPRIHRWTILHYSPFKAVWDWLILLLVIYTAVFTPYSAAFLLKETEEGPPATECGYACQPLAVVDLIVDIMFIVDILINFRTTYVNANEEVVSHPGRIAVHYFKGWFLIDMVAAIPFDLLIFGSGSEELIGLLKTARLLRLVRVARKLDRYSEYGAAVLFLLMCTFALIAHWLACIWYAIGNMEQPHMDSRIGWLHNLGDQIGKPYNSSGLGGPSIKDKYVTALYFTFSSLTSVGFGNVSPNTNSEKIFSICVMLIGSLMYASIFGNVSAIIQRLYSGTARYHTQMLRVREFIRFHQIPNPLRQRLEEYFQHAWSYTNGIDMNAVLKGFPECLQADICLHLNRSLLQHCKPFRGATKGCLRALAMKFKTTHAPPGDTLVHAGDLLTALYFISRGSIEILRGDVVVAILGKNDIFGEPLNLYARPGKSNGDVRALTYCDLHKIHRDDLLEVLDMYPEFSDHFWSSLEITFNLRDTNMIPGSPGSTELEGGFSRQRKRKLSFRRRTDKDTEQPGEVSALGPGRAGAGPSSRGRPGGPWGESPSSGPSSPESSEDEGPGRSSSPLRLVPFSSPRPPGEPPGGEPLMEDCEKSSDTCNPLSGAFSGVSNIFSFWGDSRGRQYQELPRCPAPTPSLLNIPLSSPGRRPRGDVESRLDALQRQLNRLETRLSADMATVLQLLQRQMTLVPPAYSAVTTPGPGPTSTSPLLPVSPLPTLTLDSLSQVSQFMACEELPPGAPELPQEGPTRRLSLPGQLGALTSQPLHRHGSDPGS

Row | log P (log P) | Ki [2] [µM] | SMILES | EC50 [1] [µM] | IC50 (potassium channel hERG) [µM]
1 | 4.55 | 0.1 | CC(C)=CC(CC(C)(C)c1ccc(S(C)(=O)=O)cc1)N1CCC(c2ccncc2)CC1 (stereo not shown) [Compound 51] | 20 | 
2 | 6.26 | 0.085 | CC(C)=CC(CC(C)(C)c1ccc(C)cc1)N1CCN(CC(C)C)CC1 (stereo not shown) [Compound 45] | 2.6 | 
3 | 4.52 |  | CC(C)=CC(CC(C)(C)c1ccc(Cl)cc1)N1CC[C@H](O)C1 (stereo partly shown) [Compound 230] | 10 | 16
4 | 7.04 | 0.033 | CC(C)=CC(CC(C)(C)c1ccc(C)cc1)N1CCC(C(C)C)CC1 (stereo not shown) [Compound 33] | 1.92 | 
5 | 6.22 | 0.00076 | CC(C)=CC(CC(C)(C)c1ccc(C)cc1)N1CCC(C2CCOCC2)CC1 (stereo not shown) [Compound 3] | 0.25 | 
6 | 6.41 |  | CC(C)=CC(CC(C)(C)c1ccc(C(F)(F)F)cc1)N1CCC(N2CCCCC2)CC1 (stereo not shown) [Compound 127] | 0.3 | 3.3
7 | 4.57 |  | CC(C)=C[C@H](CC(C)(C)c1ccc(F)cc1)N1CCC[C@@H]1CO [Compound 242] |  | 14
8 | 3.97 |  | CC(C)=CC(CC(C)(C)c1ccccc1)N1CCC(O)CC1 (stereo not shown) [Compound 201] | 15 | 15
9 | 5.22 |  | COCC1CCCN1C(C=C(C)C)CC(C)(C)c1ccc(F)cc1 (stereo not shown) [Compound 245] | > 15 | 14
10 | 5.13 |  | CC(C)=CC(CC(C)(C)c1ccc(C(F)(F)F)cc1)N1CCC(C)(O)CC1 (stereo not shown) [Compound 129] | 1.3 | 24
11 | 6.2 |  | CC(C)=CC(CC(C)(C)c1ccc(Cl)cc1)N1CCN(C(=O)OCC(C)C)CC1 (stereo not shown) [Compound 198] |  | 4.8
12 | 4.25 |  | CC(C)=CC(CC(C)(C)c1ccccc1)N1CCC(C)(O)CC1 (stereo not shown) [Compound 213] | 6.6 | 6.4
13 | 5.04 |  | CC(C)=C[C@@H](CC(C)(C)c1ccc(Cl)cc1)N1CCC[C@@H]1CO [Compound 239] |  | 4.6
14 | 4.87 |  | CC(C)=CC(CC(C)(C)c1ccc(OC(C)C)cc1)N1CCC(C)(O)CC1 (stereo not shown) [Compound 180] |  | 20
15 | 6.16 |  | CC(C)=CC(CC(C)(C)c1ccc(F)cc1)N1CCC2(CC1)OCc1ccccc12 (stereo not shown) [Compound 185] |  | 3
16 | 4.79 |  | CC(C)=CC(CC(C)(C)c1ccc(C(F)(F)F)cc1)N1CC[C@H](O)C1 (stereo partly shown) [Compound 232] | 15 | 29
17 | 5.58 |  | CCOC1CCN(C(C=C(C)C)CC(C)(C)c2ccc(Cl)cc2)CC1 (stereo not shown) [Compound 136] | 1.5 | 2.1
18 | 5.95 |  | CC(C)=CC(CC(C)(C)c1ccc(Cl)cc1)N1CCC(CCOC2CCOC2)CC1 (stereo not shown) [Compound 181] |  | 1.8
19 | 6.79 |  | COCCCC1CCN(C(C=C(C)C)CC(C)(C)c2ccc(OC(C)(C)C)cc2)CC1 (stereo not shown) [Compound 183] |  | 2.1
20 | 6.28 |  | CC(C)=CC(CC(C)(C)c1ccc(C(F)(F)F)cc1)N1CCN(C(=O)OC(C)(C)C)CC1 (stereo not shown) [Compound 200] |  | 83
21 | 4.61 |  | CC(C)=CC(CC(C)(C)c1ccc(F)cc1)N1CCC(N2CCOCC2)CC1 (stereo not shown) [Compound 126] | 0.3 | 7.4
22 | 4.05 |  | COCCC1(O)CCN(C(C=C(C)C)CC(C)(C)c2ccc(F)cc2)CC1 (stereo not shown) [Compound 218] |  | 13
23 | 5.22 |  | COC[C@@H]1CCCN1[C@@H](C=C(C)C)CC(C)(C)c1ccc(F)cc1 [Compound 244] | 8.5 | 4.8
24 | 4.51 |  | COCCC1(O)CCN(C(C=C(C)C)CC(C)(C)c2ccc(Cl)cc2)CC1 (stereo not shown) [Compound 217] | 4.6 | 7.7

The remaining lines, values behind:

Row | SMILES | log P (log P) | Ki [2] [µM] | EC50 [1] [µM] | IC50 (potassium channel hERG) [µM]
25 | CC(C)=CC(CC(C)(C)c1ccc(C)cc1)NCc1ccc(C)cc1 (stereo not shown) [Compound 54] | 7.02 | 0.12 | 3.2 | 
26 | CC(C)=CC(CC(C)(C)c1ccc(Cl)cc1)N1CCC2(CC1)OCc1ccccc12 (stereo not shown) [Compound 187] | 6.62 |  |  | 1
27 | CC(CC(C)(C)c1ccc(Cl)cc1)N1CCCC1CO (stereo not shown) [Compound 229] | 4.03 |  | 15 | 21
28 | COCC1CCCN1C(C=C(C)C)CC(C)(C)c1ccccc1 (stereo not shown) [Compound 252] | 5.07 |  | 15 | 7
29 | COCCC1(O)CCN(C(C=C(C)C)CC(C)(C)c2ccc(C(F)(F)F)cc2)CC1 (stereo not shown) [Compound 210] | 4.79 |  | 0.42 | 4.4
30 | CCCCC1(O)CCN(C(C=C(C)C)CC(C)(C)c2ccc(C(F)(F)F)cc2)CC1 (stereo not shown) [Compound 212] | 6.54 |  | 1.8 | 27
31 | CC(C)=CC(CC(C)(C)c1ccc(C(F)(F)F)cc1)N1CCC[C@H]1CO (stereo partly shown) [Compound 236] | 5.31 |  | 15 | 20
32 | COC[C@H]1CCCN1[C@@H](C)CC(C)(C)c1ccc(C(F)(F)F)cc1 [Compound 254] | 4.95 |  |  | 5
33 | CC1(O)CCN(CCC(C)(C)c2ccc(Cl)cc2)CC1 [Compound 192] | 3.44 |  |  | 19
34 | CC(CC(C)(C)c1ccc(C(F)(F)F)cc1)N1CC[C@H](O)C1 (stereo partly shown) [Compound 233] | 3.79 |  | 0.26 | 24
35 | CC(C)=CC(COc1ccc(Cl)cc1)N1CCC(CCO)CC1 (stereo not shown) [Compound 188] | 4 |  |  | 0.4
36 | COC1CCN(C(C)CC(C)(C)c2ccc(Cl)cc2)CC1 (stereo not shown) [Compound 199] | 4.22 |  |  | 1.2
37 | CC(CC(C)(C)c1ccc(Cl)cc1)N1CCC(O)C1 (stereo not shown) [Compound 250] | 3.51 |  | 15 | 28
38 | COCC1CCCN1C(C)CC(C)(C)c1ccc(Cl)cc1 (stereo not shown) [Compound 238] | 4.67 |  | 15 | 13
39 | CC(C)=CC(CC(C)(C)c1ccc(C(F)(F)F)cc1)N1CCC(O)(c2ccccc2)CC1 (stereo not shown) [Compound 205] | 6.5 |  | 0.59 | 3.9
40 | COC[C@@H]1CCCN1[C@@H](C=C(C)C)CC(C)(C)c1ccccc1 [Compound 249] | 5.07 |  | 15 | 9.4
